Data as given in paper PMC11847258, “Phase I trial of the combination of the pan-ErbB inhibitor neratinib and mTOR inhibitor everolimus in advanced cancer patients with ErbB family gene alterations” (ESMO Open, 2025).
Where two headings read alike, the source gives them in different places.

Tests used:
[1] = Plasma pharmacokinetics on cycle 1, day 15 (LC/MS, noncompartmental analysis); type: in vivo, human; conditions: for AUC(0-t): read-out: AUC0-24; for clearance: read-out: CLss (converted); for concentration at 24 h: read-out: Ctau or C24
Description: Pharmacokinetic (PK) analysis was conducted on cycle 1, day 15 for both everolimus and neratinib with blood samples collected at pre-dose, 1, 3, 4, 6, 8, and 24 hours post-dose. Following good clinical and laboratory practices, blood was collected into K2-EDTA vacutainers, gently inverted and mixed, then centrifuged at 3000 rpm (1500 g) for 10 min at 4°C. The resultant plasma was placed into cryovials and frozen at −70°C until analysis.

[2] = cited from earlier work
[3] = cited from earlier work; remark: listed apart in the source
[4] = Dose Level 2: neratinib 200mg/day + everolimus 5mg/day, n=3, Cycle 1, Day 15, mean (range)
[5] = Dose Level 4: neratinib 240mg/day + everolimus 7.5mg/day, n=5, Cycle 1, Day 15, mean (range)
[6] = human, plasma, oral, Dose Level 2: neratinib 200mg/day + everolimus 5mg/day, n=3, Cycle 1, Day 15, mean (range)
[7] = human, plasma, oral, Dose Level 2: neratinib 200mg/day + everolimus 5mg/day, n=3, Cycle 1, Day 15, mean (range), read-out: Tmax
[8] = human, plasma, oral, Dose Level 4: neratinib 240mg/day + everolimus 7.5mg/day, n=5, Cycle 1, Day 15, mean (range)
[9] = monotherapy 240mg, N=3, ref Wong et.al.
[10] = monotherapy 240mg, N=3, ref Wong et.al., listed as neratinib
[11] = monotherapy 5mg, N=4, ref O’Donnell et.al.
[12] = monotherapy 10mg, N=33, ref O’Donnell et.al.
[13] = monotherapy 10mg, N=33, ref O’Donnell et.al., listed as everolimus

With `CCOc1cc2ncc(C#N)c(Nc3ccc(OCc4ccccn4)c(Cl)c3)c2cc1NC(=O)/C=C/CN(C)C` [Neratinib, neratinib] the “AR (accumulation ratio)” value [1, 4] was 1.41(1.2-1.9), the “AUC0-∞” value [1, 4] was 910 (195-2125) ng*h/mL and the “Ctau or C24” value [1, 4] was 13.6 (2.6-31.8) ng/mL. The “AR (accumulation ratio)” value [1, 5] was 2.29 (1.4-3.8), the “Ctau or C24” value [1, 5] was 44 (14.5-125) ng/mL and the Cmax [1, 6] was 35.8 ng/mL. It also gave a half-life [1, 6] of 13.1 h, an AUC(0-t) [1, 6] of 400 ng·h/mL and a clearance [1, 6] of 9970 mL/min. The concentration at 24 h [1, 6] was 13.6 ng/mL, the Tmax [1, 7] was 4.8 h and the AUC(0-inf) [1, 8] was 3930 ng·h/mL. It also gave a Cmax [1, 8] of 83.4 ng/mL, a half-life [1, 8] of 28.6 h and an AUC(0-t) [1, 8] of 1170 ng·h/mL. For the same compound, the clearance [1, 8] was 4820 mL/min, the concentration at 24 h [1, 8] was 44 ng/mL and the Tmax ([1]; human, plasma, oral, Dose Level 4: neratinib 240mg/day + everolimus 7.5mg/day, n=5, Cycle 1, Day 15, mean (range), read-out: Tmax) was 4.2 h. The “TRAE all grades: Anorexia” value [2, 9] was 2 (67), the “TRAE all grades: Diarrhea” value [2, 9] was 3 (100) and the “TRAE all grades: Fatigue” value [2, 9] was 2 (67). The “TRAE all grades: Nausea” value [2, 9] was 2 (67), the “TRAE all grades: Rash” value [2, 9] was 1 (33) and the “TRAE all grades: Vomiting” value [2, 9] was 1 (33). The “TRAE all grades: Anorexia” value [2, 10] was 67, the “TRAE all grades: Diarrhea” value [2, 10] was 100 and the “TRAE all grades: Fatigue” value [2, 10] was 67. The “TRAE all grades: Nausea” value [2, 10] was 67 and the MTD ([2]; monotherapy) was 320 mg.

In the case of `CO[C@H]1C[C@@H]2CC[C@@H](C)[C@@](O)(O2)C(=O)C(=O)N2CCCC[C@H]2C(=O)O[C@H]([C@H](C)C[C@@H]2CC[C@@H](OCCO)[C@H](OC)C2)CC(=O)[C@H](C)/C=C(\C)[C@@H](O)[C@@H](OC)C(=O)[C@H](C)C[C@H](C)/C=C/C=C/C=C/1C` [Everolimus, everolimus], the “AR (accumulation ratio)” value [1, 4] is reported as 1.2 (1.1-1.3), the “Ctau or C24” value [1, 4] is reported as 0.42 (0-1.1) ng/mL and the “AR (accumulation ratio)” value [1, 5] is reported as 1.7 (1-2.6). For the same compound, the “Ctau or C24” value [1, 5] was 2.8 (0-9.9) ng/mL, the Tmax [1, 5] was 4.8 h and the AUC(0-inf) [1, 6] was 53.8 ng·h/mL. For the same compound, the Cmax [1, 6] was 3.58 ng/mL, the half-life [1, 6] was 8.2 h and the AUC(0-t) [1, 6] was 24.3 ng·h/mL. It also gave a clearance [1, 6] of 3370 mL/min, a concentration at 24 h [1, 6] of 0.42 ng/mL and a Tmax [1, 7] of 4.33 h. It also gave an AUC(0-inf) [1, 8] of 253 ng·h/mL, a Cmax [1, 8] of 8.5 ng/mL and a half-life [1, 8] of 16.8 h. The AUC(0-t) [1, 8] was 116 ng·h/mL, the clearance [1, 8] was 2300 mL/min and the concentration at 24 h [1, 8] was 2.8 ng/mL. For the same compound, the Tmax ([1]; human, plasma, oral, both groups (DL 2 and DL 4), with neratinib, read-out: mean Tmax) was greater than 4 h, the “TRAE all grades: Anemia” value [3, 11] was 1 (25) and the “TRAE all grades: Anorexia” value [3, 11] was 1 (25). The “TRAE all grades: Constipation” value [3, 11] was 1 (25), the “TRAE all grades: Mucositis” value [3, 11] was 2 (50) and the “TRAE all grades: Nausea” value [3, 11] was 1 (25). The “TRAE all grades: Pruritus” value [3, 11] was 1 (25), the “TRAE all grades: Rash” value [3, 11] was 2 (50) and the “Grade ≥ 3 treatment-related: Anorexia” value [3, 12] was 2 (6.1). The “Grade ≥ 3 treatment-related: Dyspnea” value [3, 12] was 1 (3), the “Grade ≥ 3 treatment-related: Epistaxis” value [3, 12] was 1 (3) and the “Grade ≥ 3 treatment-related: GI hemorrhage” value [3, 12] was 1 (3). For the same compound, the “Grade ≥ 3 treatment-related: Hyperglycemia” value [3, 12] was 2 (6.1), the “Grade ≥ 3 treatment-related: Hypertriglyceridemia” value [3, 12] was 1 (3) and the “Grade ≥ 3 treatment-related: Mucositis” value [3, 12] was 2 (6.1). The “Grade ≥ 3 treatment-related: Nausea” value [3, 12] was 1 (3), the “Grade ≥ 3 treatment-related: Pneumonia” value [3, 12] was 1 (3) and the “Grade ≥ 3 treatment-related: Rash” value [3, 12] was 1 (3). For the same compound, the “Grade ≥ 3 treatment-related: Thrombocytopenia” value [3, 12] was 2 (6.1), the “TRAE all grades: Anorexia” value [3, 12] was 11 (33.3) and the “TRAE all grades: Constipation” value [3, 12] was 7 (21.2). For the same compound, the “TRAE all grades: Diarrhea” value [3, 12] was 7 (21.2), the “TRAE all grades: Fatigue” value [3, 12] was 12 (36.4) and the “TRAE all grades: Headache” value [3, 12] was 7 (21.2). The “TRAE all grades: Mucositis” value [3, 12] was 17 (51.5), the “TRAE all grades: Nausea” value [3, 12] was 14 (42.4) and the “TRAE all grades: Rash” value [3, 12] was 20 (60.6). The “TRAE all grades: Vomiting” value [3, 12] was 5 (15.2), the “TRAE all grades: Mucositis” value [3, 13] was 51.5 and the “TRAE all grades: Nausea” value [3, 13] was 42.4. For the same compound, the “TRAE all grades: Rash” value [3, 13] was 60.6, the Tmax ([3]; single agent) was 1 to 2 h and the “dose with acceptable tolerability suggested by PK analysis (MTD undetermined)” value ([3]; single agent) was 10 mg/day.
